In publication PMC5856786, “A DHODH inhibitor increases p53 synthesis and enhances tumor cell killing by p53 degradation blockage” (Nature Communications, 2018):

Experiments:
[1] = tested on: p53 and p53-induced proteins in ARN8 cells; assay: Western blotting of p53, hdm2 and p21 levels; assay type: cell-based, human; settings: ARN8 melanoma cells
Experimental: Levels of p53, as well as downstream targets hdm2 (human mdm2) and p21 were determined. Levels of gapdh were used to monitor protein loading. e ARN8 or HNDF cells were treated with the indicated compound concentrations for 72 h and subjected to MTT assays. […] Incorporation of ^35S in the p53 immunoprecipitate was determined by autoradiography. The experiment is shown in duplicate
Protein extracts were prepared in 1× LDS sample buffer (Invitrogen) with 100 mM DTT and separated and transferred using the Invitrogen western blotting system except in Supplementary Fig. 1c where the BioRad western blotting system was used. HRP-conjugated secondary antibodies were obtained from Dako (#P016102 and #P0211702) or Santa Cruz (#SC-2020). Immunofluorescence was performed by fixing cells in 4% paraformaldehyde freshly made in PBS for 10 min at 37 °C. Following fixation, cells were permeabilized in 0.15% Triton X-100 for 1–2 min at 37 °C followed by staining with the indicated antibodies. Images were taken using Olympus IX-71 microscope controlled by DeltaVision SoftWoRx. Image stacks were deconvolved, quick-projected and saved as tiff images to be processed using Adobe Photoshop. Antibodies to specific antigens are listed in Supplementary Table 8. All original films for blots in Fig. 1 are shown in Supplementary Figs. 9–12.

[2] = tested on: lipid kinases; assay: ADP-Glo kinase assays, panel of 16 lipid kinases (Supplementary Table 3); assay type: biochemical
Source text: Supplementary Table 3. In vitro inhibition (% remaining activity) of lipid […]
kinases using ADP-Glo™ kinase assays (Promega) according to manufacturer ’s instructions (International Centre for Kinase Profiling, Dundee, UK).
(1 picture or pasted object on this page, not shown here)

[3] = biological target: T1, human mdmx (hdmx) (Homo sapiens, UniProt O15151); assay: hdmx binding (CETSA in ARN8 extracts; ELISA with IP3 peptide); settings: CETSA at 100 μM
T1 construct: ARN8 soluble cell extracts were prepared for the cellular thermal shift assay (CETSA); endogenous in cells; host or cells: ARN8 human melanoma cells (soluble extract)
Experimental: Levels of gapdh were used to monitor protein loading. e ARN8 or HNDF cells were treated with the indicated compound concentrations for 72 h and subjected to MTT assays. […] Incorporation of ^35S in the p53 immunoprecipitate was determined by autoradiography. The experiment is shown in duplicate
corresponds to residues 17−26 of wild-type p53) was determined by ELISA (See
supplementary information9). The percentage hdm2/hdmx bound to IP3 relative to the vehicle
upon which cycloheximide (CHX) (10 µg mL-1) was added for the indicated periods of time. […]

[4] = tested on: ARN8 cells; assay: Giemsa staining of ARN8 cultures (uridine, orotic acid, dihydroorotic acid supplementation); assay type: cell-based, human; settings: 72 h, 2.5 or 5 μM uridine, serum replacement medium
Experimental: Additionally, ARN8 cells were treated for 16 h and p53-dependent transcription was measured by CPRG assay. Values correspond to the average of three technical repeats ± SD. c Simplified description of the pyrimidine nucleotide de novo (blue) and salvage (black) pathways. d ARN8 cells were seeded in FBS supplemented DMEM with a change to serum replacement medium 24 h post seeding. […] Values correspond to the average of three technical repeats ± SD. f ARN8 cells were seeded in FBS supplemented DMEM with a change to serum replacement medium 24 h post seeding.

[5] = In vivo pharmacokinetic parameters of (R)-HZ05; design: species or system C57B1/6N mice; settings: female, C57B1/6N, mouse, plasma, sc, 50 mg kg-1; following subcutaneous administration (Supplementary Fig. 7b); read-out: half-life (converted)
Experimental: Waters Acquity UPLC (Waters Corp.) was used for all LC/MS and LC/MS/MS experiments. For chromatographic separation a general gradient was used (5 % mobile phase B to 90 % over 2 min total run) on a C18 BEH 1.7 µm column 2 × 50 mm (Waters Corp.). Mobile phase A consisted of 5 % acetonitrile 0.1 % formic acid and mobile phase B 100 % acetonitrile 0.1 % formic acid. The flow rate was 0.5 mL min-1 and 3 µL of the sample was injected. A standard curve between 3−1000 nM was prepared for each compound. […]
In vivo Pharmacokinetic Parameter Determination
(R)-HZ05 was formulated for subcutaneous and oral administration at 5 mg mL-1 in 20 % hydroxypropyl-β-cyclodextrin in PBS and formulated at 5 mg mL-1 diluted in physiological NaCl. […]
Blood was collected […]
in EDTA tubes from three mice per time point and stored on ice with plasma separated within 30 min by centrifugation at 2000 g and stored at –80 ° C until analysis at 0.08, 0.25, 0.5, 1, 2, 3, 4, 6 and 24 h post administration. […] internal standard (9 nM warfarin) was added to each plasma sample and each sample was shaken at RT for 10 min followed by centrifugation at 2000 g for 30 min at 4 °C. […] of sample was injected into an Acquity UPLC coupled to a triple quadrupole mass spectrometer (Waters) operated in MRM mode with positive electrospray ionization. MRM transition 381.09 > […]
CV and 40 V for CE) as a qualifier ion. Transition for internal standard was 309.16 > 163.005 (22 V for CV and 14 V for CE). Ion source conditions were: capillary voltage, 2000 V; desolvation temperature, 500 °C; desol vation gas flow rate, 1000 L h-1. Separation was conducted using a BEH C18 column (2.1 × 50 mm, 1.7 µm, Waters) using a linear gradient: 0 – 0.5 min, 5 % B; […], 100 % B, 1.61–2.00 min, 5 % B. Mobile phase A was 5 % acetonitrile with 0.1 % formic acid and B […]
All animal experimentation was carried out by Sweden
Contract In vivo Design AB in compliance with 2010/63/EU directive and approved by Stockholms Norra Djurförsöksetiska Nämnd (laboratory animal eth ical committee Stockholm) with the approval number N61/15. Any single plasma concentration value deviated by >10 times from the other two values was excluded from the pharmacokinetic evaluation, but was included in the figure. […]

[6] = biological target: recombinant human DHODH (Homo sapiens, UniProt Q02127); assay: Kinetic DHODH enzyme assay (3,4-dimethoxy-5-methyl-p-benzoquinone, DCIP); assay type: biochemical; design: made in house
Experimental: In Fig. 5a enzyme assays were optimized and performed with 6 nM recombinant human DHODH prepared as described. The reaction mixture for these kinetic assays consisted of 1 mM DL-dihydroorotic acid, 100 µM 3,4-dimethoxy-5-methyl-p-benzoquinone (#D9150, Sigma-Aldrich), and 100 µM DCIP in enzyme buffer. A stock solution of 20 mM DCIP was prepared in enzyme buffer and filtered through filter paper (20–25 μm pore size) just before use. Loss in absorbance by DCIP was measured at 595 nm at RT in a stepped time course (8 × 2 min, 8 × 3 min, 6 × 5 min). […] Therefore, for each concentration of inhibitor tested, a value for DHODH’s Vmax was estimated by linear regression within this time frame.

Sequence of recombinant human DHODH (Q02127 29-395 limits assumed): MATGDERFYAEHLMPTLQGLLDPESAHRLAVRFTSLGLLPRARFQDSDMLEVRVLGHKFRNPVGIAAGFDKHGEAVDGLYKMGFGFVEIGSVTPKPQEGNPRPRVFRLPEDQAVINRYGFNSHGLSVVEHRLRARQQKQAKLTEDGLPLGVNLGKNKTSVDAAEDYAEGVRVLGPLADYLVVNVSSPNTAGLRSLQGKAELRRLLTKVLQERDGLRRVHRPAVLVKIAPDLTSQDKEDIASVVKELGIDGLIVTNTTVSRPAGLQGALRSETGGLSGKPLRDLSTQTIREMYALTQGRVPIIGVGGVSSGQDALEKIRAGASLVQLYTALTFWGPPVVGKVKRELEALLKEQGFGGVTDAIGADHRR
T1 sequence (O15151 whole entry): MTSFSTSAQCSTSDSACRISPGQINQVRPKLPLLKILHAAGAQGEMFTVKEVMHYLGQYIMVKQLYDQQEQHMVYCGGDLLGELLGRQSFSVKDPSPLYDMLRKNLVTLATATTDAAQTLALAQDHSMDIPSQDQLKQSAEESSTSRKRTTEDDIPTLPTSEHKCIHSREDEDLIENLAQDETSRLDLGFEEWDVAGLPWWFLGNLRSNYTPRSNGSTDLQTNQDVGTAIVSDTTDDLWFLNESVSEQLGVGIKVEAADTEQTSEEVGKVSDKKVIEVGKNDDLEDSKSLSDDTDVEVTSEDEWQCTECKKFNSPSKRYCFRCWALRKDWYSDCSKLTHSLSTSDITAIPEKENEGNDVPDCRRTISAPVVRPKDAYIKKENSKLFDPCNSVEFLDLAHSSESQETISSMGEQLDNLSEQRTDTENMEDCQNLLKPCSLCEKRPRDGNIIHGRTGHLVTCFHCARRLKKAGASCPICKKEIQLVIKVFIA

| Structure (SMILES) | levels of p53 and p53-induced proteins [1] | inhibition of lipid kinases [2] | binding to human mdmx (hdmx) [3] | tumor cell growth at physiological uridine levels [4] | half-life [5] [h] | IC50 ([6]; Fig. 5a, average of three independent repeats ± SD) [nM] | concentration inhibiting DHODH enzymatic activity ([6]; authors' response in peer review file) |
| --- | --- | --- | --- | --- | --- | --- | --- |
| O=C(NC1CCCc2c1cnn2-c1ccccc1F)c1ccccn1 (stereo not shown) [HZ00] | increased the levels of p53 and p53-induced proteins | did not detect inhibition | not detected |  |  |  |  |
| O=C(NC1CCCc2c1cnn2-c1ccccc1F)c1onc2c1CCCC2 (stereo not shown) [HZ05] |  |  |  | able to ablate tumor cell growth | 2.5 | 32 ± 2 | below 40 nM |
